Laboratory results published in article PMC6980506, “Comparative pharmacokinetics and pharmacodynamics of the advanced Retinol-Binding Protein 4 antagonist in dog and cynomolgus monkey” (PLoS ONE, 2020).
Where two headings read alike, the source gives them in different places.

How the values were obtained:
bisretinoid synthesis = system: bisretinoid synthesis; design: method as in PMID 29871924; settings: Abca4-/- mouse model of Stargardt disease; cited from earlier work
serum RBP4 = system: serum RBP4; design: method as in PMID 29871924; settings: mice; cited from earlier work
[1] = Single dose pharmacokinetic study in cynomolgus monkey; format: in vivo
Description: Pharmacokinetic studies were conducted in male beagle dogs and male cynomolgus monkeys at SRI International, Menlo Park, CA. General procedures for animal care and housing were in accordance with the National Research Council (NRC) Guide for the Care and Use of Laboratory Animals (1996) and the Animal Welfare Standards incorporated in 9 CFR Part 3, 1991 and complied with guidelines set forth by the ARVO Animal Statement for the Use of Animals in Ophthalmic and Vision Research. During the course of the PK experiments, cynomolgus monkeys were individually housed in stainless steel primary enclosures in an AAALAC-accredited facility. Animals were fed a commercial monkey chow, and supplemental food was provided (fresh fruits, vegetables, seeds, and nuts). Reverse osmosis-purified drinking water was available at all times. Cynomolgus monkeys were maintained on a 12:12 hour light:dark cycle at the 64–84°F temperature and 30–70% humidity. Monkeys had access to enrichment opportunities (grooming devices, foraging devices, activity panels and mirrors) and were provided auditory stimuli and human interaction enrichment throughout the study. Blood samples were collected by venipuncture of a peripheral vein. Animals were acclimated to the squeeze back mechanism in their home cage by repeated, short periods of restraint during general husbandry procedures for at least 2 weeks prior to dosing. Animal were not removed from their cages for collection, and no anesthesia/analgesic agents were used for blood collection. […] For PK experiments, beagle dogs were individually housed in enclosed run (≥ 4 ft x 6 ft). Dogs were exposed to their daily ration of food, Harlan Teklad 2025C Certified Global 25% Protein Dog Diet. Water was provided from the public water supply (municipal tap water) ad libitum. Dogs were maintained on a 12:12 hour light:dark cycle at the 72–73°F temperature and 40–71% humidity. Every effort was made to minimize, if not eliminate, pain and suffering in all animals in this study. No restraining devices were used in blood collecting procedures. Dogs were gentle hand-held to restrain by trained technicians with the dogs foreleg extended for sample collection of blood from cephalic vein. Animals were awake during blood sample collection with no anesthesia/analgesic agents used, and positive reinforcement by the technician was provided following collection. […] All dogs were released back to the colony after the study was completed. Male beagle dogs and male cynomolgus monkey received a single i.v. dose of a test compound at 0.5 mg kg^−1 (dog) and 1 mg kg^−1 (monkey) or a single p.o. dose of a test compound of at 2 mg kg^−1 (dog) and 5 mg kg^−1 (monkey). The number of animals that was used in PK experiments is 3 per study group. Intravenous administration vehicle was 3% DMA/45% PEG300/12% ethanol/40% sterile water; p.o. vehicle was 2% Tween 80 in 0.9% saline. […] Blood samples were processed to plasma. Following protein extraction with acetonitrile, compound concentrations in plasma were measured by LC-MS/MS. The plasma drug level data were analyzed using WinNonlin software package; Model 201 (for i.v. bolus administration);was used for the analysis of i.v. data, and Model 200 (for extravascular administration) was used for the analysis of the p.o. data. Aliquots of pre-dose plasma samples, as well as aliquots of plasma PK samples, were used for the analysis of the plasmabiomarker, RBP4.
Administration to Non-Human Primates
II. MATERIALS AND METHODS

[2] = Cyno, 5.0 mg kg^−1 p.o., mean ± SD, n=3
[3] = male, cynomolgus monkey, plasma, iv, 1 mg/kg, non-human primate, iv 1.0 mg/kg, read-out: Plasma level, Individual animals
[4] = male, cynomolgus monkey, plasma, iv, 1 mg/kg, non-human primate, iv 1.0 mg/kg, read-out: Plasma level, Mean
[5] = male, cynomolgus monkey, plasma, po, 5 mg/kg, non-human primate, po 5 mg/kg, read-out: Plasma level, Individual animals
[6] = male, cynomolgus monkey, plasma, po, 5 mg/kg, non-human primate, po 5 mg/kg, read-out: Plasma level, Mean

Q: Which bisretinoid synthesis (bisretinoid synthesis) does the source give for `Cc1cc(C(=O)O)nc(N2C[C@H]3C[C@@H](c4ccccc4C(F)(F)F)C[C@H]3C2)n1` [BPN-14136] here?
A: significantly inhibited bisretinoid synthesis

Q: What about the “serum RBP4 lowering” value (serum RBP4) of the same compound?
A: 90%

Q: And the “%F, bioavailability” value ([1]; Cyno, 5.0 mg kg^−1 p.o. vs 1.0 mg kg^−1 i.v.)?
A: 84.3 ± 24.8%

Q: And the AUCinf [1, 2]?
A: 826.6 ± 243.1 µg·h/mL

Q: And the Cmax [1, 2]?
A: 31500 ± 200 ng/mL

Q: What about the AUC(0-inf) ([1]; male, cynomolgus monkey, plasma, iv, 1 mg/kg, Cyno, 1.0 mg kg^−1 i.v., mean ± SD, n=3) of the same compound?
A: 196 ± 42.2 µg·h/mL

Q: What about the Cmax ([1]; male, cynomolgus monkey, plasma, iv, 1 mg/kg, Cyno, 1.0 mg kg^−1 i.v., mean ± SD, n=3, read-out: Cmax, maximum observed concentration at first time point) of the same compound?
A: 11400 ± 600 ng/mL

Q: What about the concentration at 0.0083 hr [1, 3] of the same compound?
A: 10900 ng/mL

Q: And the concentration at 0.0083 hr [1, 4]?
A: 11400 ng/mL

Q: And the concentration at 0.25 hr ([1]; male, cynomolgus monkey, plasma, iv, 1 mg/kg, non-human primate, iv 1.0 mg/kg, 0.25 hr, read-out: Plasma level, Individual animals)?
A: 10500 ng/mL

Q: And the concentration at 0.25 hr ([1]; male, cynomolgus monkey, plasma, iv, 1 mg/kg, non-human primate, iv 1.0 mg/kg, 0.25 hr, read-out: Plasma level, Mean)?
A: 10700 ng/mL

Q: What about the concentration at 0.5 hr [1, 3] of the same compound?
A: 9300 ng/mL

Q: And the concentration at 0.5 hr [1, 4]?
A: 9570 ng/mL

Q: What about the concentration at 1 hr [1, 3] of the same compound?
A: 9470 ng/mL

Q: What about the concentration at 1 hr [1, 4] of the same compound?
A: 9060 ng/mL

Q: What about the concentration at 2 hr [1, 3] of the same compound?
A: 8910 ng/mL

Q: And the concentration at 2 hr [1, 4]?
A: 8080 ng/mL

Q: And the concentration at 4 hr [1, 3]?
A: 7450 ng/mL

Q: And the concentration at 4 hr [1, 4]?
A: 7080 ng/mL

Q: What about the concentration at 8 hr [1, 3] of the same compound?
A: 6160 ng/mL

Q: And the concentration at 8 hr [1, 4]?
A: 5890 ng/mL

Q: And the concentration at 12 hr [1, 3]?
A: 4470 ng/mL

Q: What about the concentration at 12 hr [1, 4] of the same compound?
A: 4780 ng/mL

Q: And the concentration at 24 hr [1, 3]?
A: 2840 ng/mL

Q: What about the concentration at 24 hr [1, 4] of the same compound?
A: 2930 ng/mL

Q: And the concentration at 36 hr ([1]; male, cynomolgus monkey, plasma, iv, 1 mg/kg, non-human primate, iv 1.0 mg/kg, 36 hr, read-out: Plasma level, Mean)?
A: 1670 ng/mL

Q: And the concentration at 48 hr ([1]; male, cynomolgus monkey, plasma, iv, 1 mg/kg, non-human primate, iv 1.0 mg/kg, 48 hr, read-out: Plasma level, Mean)?
A: 1050 ng/mL

Q: What about the AUC(0-t) ([1]; male, cynomolgus monkey, plasma, iv, Cyno, 1.0 mg kg^−1 i.v., mean ± SD, n=3) of the same compound?
A: 171 ± 27 µg·h/mL

Q: And the clearance ([1]; male, cynomolgus monkey, plasma, iv, Cyno, 1.0 mg kg^−1 i.v., mean ± SD, n=3, read-out: CL, total body clearance (converted))?
A: 5.25 mL/h/kg

Q: And the half-life ([1]; male, cynomolgus monkey, plasma, iv, Cyno, 1.0 mg kg^−1 i.v., mean ± SD, n=3, read-out: T1/2, apparent terminal half-life (converted))?
A: 15.6 ± 3.3 h

Q: What about the Vd ([1]; male, cynomolgus monkey, plasma, iv, Cyno, 1.0 mg kg^−1 i.v., mean ± SD, n=3, read-out: Vss, volume of distribution at steady state) of the same compound?
A: 0.113 ± 0.004 L/kg

Q: What about the bioavailability ([1]; male, cynomolgus monkey, plasma, oral, 5 mg kg^−1, Cyno, 5.0 mg kg^−1 p.o. vs 1.0 mg kg^−1 i.v., read-out: %F, bioavailability) of the same compound?
A: ~84%

Q: What about the AUC(0-inf) ([1]; male, cynomolgus monkey, plasma, po, 5 mg/kg, Cyno, 5.0 mg kg^−1 p.o., mean ± SD, n=3) of the same compound?
A: 676 µg·h/mL

Q: What about the Cmax ([1]; male, cynomolgus monkey, plasma, po, 5 mg/kg, Cyno, 5.0 mg kg^−1 p.o., mean ± SD, n=3, read-out: Cmax) of the same compound?
A: 31400 ng/mL

Q: And the concentration at 0.25 hr ([1]; male, cynomolgus monkey, plasma, po, 5 mg/kg, non-human primate, po 5 mg/kg, 0.25 hr, read-out: Plasma level, Individual animals)?
A: 9720 ng/mL

Q: What about the concentration at 0.25 h ([1]; male, cynomolgus monkey, plasma, po, 5 mg/kg, non-human primate, po 5 mg/kg, 0.25 hr, read-out: Plasma level, Mean) of the same compound?
A: 11100 ng/mL

Q: What about the concentration at 0.5 h [1, 5] of the same compound?
A: 28100 ng/mL

Q: And the concentration at 0.5 h [1, 6]?
A: 22200 ng/mL

Q: And the concentration at 1 hr [1, 5]?
A: 24600 ng/mL

Q: What about the concentration at 1 hr [1, 6] of the same compound?
A: 29800 ng/mL

Q: What about the concentration at 2 hr [1, 5] of the same compound?
A: 32400 ng/mL
